In patent US10596267B2, “Method and process for quantitative evaluation of pharmacokinetics, therapeutic effects and safety of delivery of drug compounds to the inner ear for treatment of auditory disease” (The Charles Stark Draper Laboratory, Inc., priority 2016, dated 2020):

System: guinea pig cochleae
Assay: Reciprocating inner ear delivery of DNQX by micropump via cochleostomy; CAP and DPOAE hearing measurements
Conditions: pump infusion via cochleostomy at the basal turn
Description: Infusion began at t=0. A hearing threshold is the minimum sound pressure level (measured in dB SPL) required to generate a response. Data reported are threshold shifts, the change in threshold as compared to baseline. […] CAP amplitudes are also shown, with a legend that is on a log scale.
Reciprocating inner ear delivery and electronically-controlled dosing in a guinea pig model using a pump to infuse a drug via a cochleostomy (made at the basal turn) was evaluated. The drug reservoir was loaded with the glutamate receptor antagonist DNQX (which disrupts hair-cell-to-auditory-nerve synaptic transmission resulting in attenuation of compound action potentials (CAPs) generated in response to auditory stimuli). The molecular weight (232 Daltons) and physicochemical characteristics of DNQX make it a suitable model for evaluating the potential of other small molecule candidates for inner ear delivery. […] DPOAE responses from hair cells (which are not altered by DNQX) were monitored as a control for nonspecific effects.
In the experiments described herein, drug concentration was not measured directly, but was inferred by mapping the drug-mediated CAP inhibition along the length of the ST to calculate drug concentrations at a given location.

O=[N+]([O-])c1cc2nc(O)c(O)nc2cc1[N+](=O)[O-] [DNQX]
DPOAE over time (control for nonspecific effects, mechanical damage or conductive hearing loss): lack of alterations in DPOAE over time
compound action potential (CAP) after initiation of drug delivery (tone-pip-evoked CAP): reduction in CAP
